From US11680047B2, “Enhanced erythropoiesis and iron metabolism” (FibroGen, Inc., priority 2003, dated 2023)

How the values were obtained:
[1] = tested on: Ceruloplasmin; experiment: Ceruloplasmin mRNA expression in mouse kidney (microarray); type: in vivo; conditions: single dose 100 mg/kg
Method: Compounds were generally administered orally by gavage or IV administration. Animals treated by oral gavage received a 4-10 ml/kg volume of either 0.5% carboxymethyl cellulose (CMC; Sigma-Aldrich, St. Louis Mo.) with or without 0.1% Polysorbate 80 (0 mg/kg/day) or varying doses of a compound of the present invention (e.g., a HIF prolyl hydroxylase inhibitor) in 0.5% CMC, with or without 0.1% Polysorbate 80, using various dosing regimens. Blood samples were collected at appropriate intervals during treatment from, e.g., tail vein (rats), or abdominal vein or cardiocentesis (mice or rats). Generally, animals were anesthetized with isoflurane and blood samples were collected into MICROTAINER serum separator tubes (Becton-Dickinson, Franklin Lakes N.J.). For measurement of serum components, the tubes were incubated at room temperature for 30 minutes, and then centrifuged at 8,000 rpm at 4° C. for 10 minutes. The serum fraction was then processed and analyzed for the presence of specific components, e.g., serum iron (assay performed by Quality Clinical Labs, Mountain View, Calif.). For determination of hematocrit, blood samples were collected into MICROTAINER EDTA-2K tubes (Becton-Dickinson); EDTA-blood was then drawn into 75 mm×1.1-1.2 mm I.D. capillary tubes (Chase Scientific Glass, Inc., Rockwood Tenn.) to approximately % length, one end of the tube was sealed with CRITOSEAL sealant (Sherwood Medical Company), and the tubes were centrifuged in a J-503M MICROHEMATOCRIT centrifuge (Jorgensen Laboratories, Inc., Loveland Colo.) at 12,000 rpm for 5 minutes. Hematocrit was read against a reader card. When indicated, complete blood count (CBC) analysis, including blood hemoglobin level, reticulocyte number, and hematocrit, was performed by Quality Clinical Labs (Mountain View, Calif.).
Swiss Webster male mice were treated as described above with a single dose of 0.5% CMC (Sigma-Aldrich) (0 mg/kg) or 100 mg/kg compound A. At 4, 8, 16, 24, 48, or 72 hours post-administration, animals were anesthetized, sacrificed, and tissue samples of kidney, liver, brain, lung, and heart were isolated and stored in RNALATER solution (Ambion) at −80° C. Alternatively, animals were treated to 4 consecutive daily doses of 0.5% CMC (0 mg/kg/day), 7.5 mg/ml compound A in 0.5% CMC (30 mg/kg/day), or 25 mg/ml compound A in 0.5% CMC (100 mg/kg/day). Four hours after administration of the final dose, animals were anesthetized, sacrificed, and approximately 150 mg of liver and each kidney were isolated and stored in RNALATER solution (Ambion) at −20° C.
RNA isolation was carried out using the following protocol. A section of each organ was diced, 875 μl of RLT buffer (RNEASY kit; Qiagen Inc., Valencia Calif.) was added, and the pieces were homogenized for about 20 seconds using a rotor-stator POLYTRON homogenizer (Kinematica, Inc., Cincinnati Ohio). The homogenate was micro-centrifuged for 3 minutes to pellet insoluble material, the supernatant was transferred to a new tube and RNA was isolated using an RNEASY kit (Qiagen) according to the manufacturer's instructions. The RNA was eluted into 80 μL of water and quantitated with RIBOGREEN reagent (Molecular Probes, Eugene Oreg.). The absorbance at 260 and 280 nm was measured to determine RNA purity and concentration.
Alternatively, tissue samples were diced and homogenized in TRIZOL reagent (Invitrogen Life Technologies, Carlsbad Calif.) using a rotor-stator POLYTRON homogenizer (Kinematica). Homogenates were brought to room temperature, 0.2 volumes chloroform was added, and samples were mixed vigorously. Mixtures were incubated at room temperature for several minutes and then were centrifuged at 12,000 g for 15 min at 4° C. The aqueous phase was collected and 0.5 volumes of isopropanol were added. Samples were mixed, incubated at room temperature for 10 minutes, and centrifuged for 10 min at 12,000 g at 4° C. […]

[2] = tested on: VCAM-1; experiment: TNF-α induced VCAM-1 expression in HUVEC; type: cell-based, human; conditions: TNF-α 1 ng/ml, 1 day
Description: Endothelial cell adhesiveness for lymphocytes occurs, in part, by endothelial cell expression of vascular cell adhesion molecule (VCAM)-1. VCAM-1 expression in endothelial cells is induced by various inflammatory cytokines, such as TNF-α. To investigate the effect of HIF prolyl hydroxylase inhibition on TNF-α induced VCAM-1 expression, HUVEC (human umbilical vein endothelial cells) were stimulated with TNF-α in the absence or presence of various concentrations of compound B or compound C for 1 day. VCAM expression was then measured.
Endothelial E-selectin belongs to the selectin family of cellular adhesion molecules mediating the initial attachment of leukocytes to vascular endothelial cells in inflammatory events. IL-1β, TNF-α, and lipopolysaccharides each induce the expression of E-selectin. (See, e.g., Bevilacqua et al. (1987) Proc Natl Acad Sci USA 84:9238-9242 and Bevilacqua and van Furth (1993) J Leukoc Biol 54:363-378.) To investigate the effect of HIF prolyl hydroxylase inhibition on TNF-α induced E-selectin expression, HUVECs were stimulated with 1 ng/ml TNF-α in the absence or presence of various concentrations of compound B or compound C for 1 day. E-selectin and VCAM expression were then measured.

SMILES: O=C(O)CNC(=O)c1nc(Cl)c2ccccc2c1O [Compound A, [(1-Chloro-4-hydroxy-isoquinoline-3-carbonyl)-amino]-acetic acid]
- Ceruloplasmin (relative mRNA levels) ([1]; 4 hours): 1.16
- Ceruloplasmin (relative mRNA levels) ([1]; 8 hours): 1.39
- Ceruloplasmin (relative mRNA levels) ([1]; 16 hours): 1.22
- Ceruloplasmin (relative mRNA levels) ([1]; 24 hours): 2.45
- Ceruloplasmin (relative mRNA levels) ([1]; 48 hours): 1.44
- Ceruloplasmin (relative mRNA levels) ([1]; 72 hours): 2.10

SMILES: O=C(O)CNC(=O)c1ncc2cc(Oc3ccccc3)ccc2c1O [Compound B, [(4-Hydroxy-7-phenoxy-isoquinoline-3-carbonyl)-amino]-acetic acid]
- inhibition of TNF-α induced VCAM-1 expression [2]: does-dependent inhibition of TNF-α induced VCAM-1 expression
